From PMC9851200, “Multiparameter phenotypic screening for endogenous TFEB and TFE3 translocation identifies novel chemical series modulating lysosome function” (Autophagy, 2022)

Experiments:
Assay type in all cases: binding
[1] = biological target: T1, kinases (KINOMEscan panel) (Homo sapiens, UniProt Q13546); conditions: kinase RIPK1; NEW KINOMEscan
T1 sequence (Q13546 1-671): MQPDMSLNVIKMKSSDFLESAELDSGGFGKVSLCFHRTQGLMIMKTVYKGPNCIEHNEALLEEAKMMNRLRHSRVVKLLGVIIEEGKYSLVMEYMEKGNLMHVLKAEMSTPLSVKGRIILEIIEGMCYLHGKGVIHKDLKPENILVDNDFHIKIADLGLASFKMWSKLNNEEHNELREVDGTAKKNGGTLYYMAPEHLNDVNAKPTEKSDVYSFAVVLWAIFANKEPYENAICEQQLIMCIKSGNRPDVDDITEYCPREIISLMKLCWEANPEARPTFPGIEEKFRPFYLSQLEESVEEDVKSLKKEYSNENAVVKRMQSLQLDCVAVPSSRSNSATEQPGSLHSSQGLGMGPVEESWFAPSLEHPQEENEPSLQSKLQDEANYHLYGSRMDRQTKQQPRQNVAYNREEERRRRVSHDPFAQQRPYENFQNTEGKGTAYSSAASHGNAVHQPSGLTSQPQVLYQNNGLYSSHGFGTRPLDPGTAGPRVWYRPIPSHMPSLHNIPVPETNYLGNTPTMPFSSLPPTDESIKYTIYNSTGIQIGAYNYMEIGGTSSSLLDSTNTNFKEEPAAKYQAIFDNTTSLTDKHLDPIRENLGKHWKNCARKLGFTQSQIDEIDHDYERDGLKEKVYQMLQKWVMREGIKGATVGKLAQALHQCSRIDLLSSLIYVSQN

[2] = biological target: kinases (KINOMEscan panel) (Homo sapiens, UniProt O95819); conditions: MAP4K4; NEW KINOMEscan
[3] = biological target: kinases (KINOMEscan panel) (Homo sapiens, UniProt Q15759)
[4] = biological target: T2, kinases (KINOMEscan panel) (Homo sapiens, UniProt Q9UHD2); conditions: TBK1; NEW KINOMEscan
T2 sequence (Q9UHD2 1-729): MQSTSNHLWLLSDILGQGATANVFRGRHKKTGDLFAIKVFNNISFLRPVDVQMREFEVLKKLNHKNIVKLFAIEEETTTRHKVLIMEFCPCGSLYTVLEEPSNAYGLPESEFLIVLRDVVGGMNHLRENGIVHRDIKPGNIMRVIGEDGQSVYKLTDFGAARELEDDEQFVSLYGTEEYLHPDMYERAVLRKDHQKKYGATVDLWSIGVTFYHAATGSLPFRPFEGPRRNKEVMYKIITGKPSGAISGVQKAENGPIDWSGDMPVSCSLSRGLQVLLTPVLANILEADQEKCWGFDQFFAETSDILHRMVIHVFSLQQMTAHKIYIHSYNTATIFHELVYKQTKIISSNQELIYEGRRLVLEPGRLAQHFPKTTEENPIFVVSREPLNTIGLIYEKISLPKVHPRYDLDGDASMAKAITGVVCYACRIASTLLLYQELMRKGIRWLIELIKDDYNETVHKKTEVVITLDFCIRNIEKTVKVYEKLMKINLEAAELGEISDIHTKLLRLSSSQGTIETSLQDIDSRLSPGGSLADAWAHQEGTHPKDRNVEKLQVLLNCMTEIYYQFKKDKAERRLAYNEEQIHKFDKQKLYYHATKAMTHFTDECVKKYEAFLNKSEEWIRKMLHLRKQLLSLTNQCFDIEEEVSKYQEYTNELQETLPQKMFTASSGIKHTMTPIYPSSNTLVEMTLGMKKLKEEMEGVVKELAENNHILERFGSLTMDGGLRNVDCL

[5] = biological target: T3, kinases (KINOMEscan panel) (Homo sapiens, UniProt Q9UQ88); conditions: NEW KINOMEscan
T3 sequence (Q9UQ88 1-783): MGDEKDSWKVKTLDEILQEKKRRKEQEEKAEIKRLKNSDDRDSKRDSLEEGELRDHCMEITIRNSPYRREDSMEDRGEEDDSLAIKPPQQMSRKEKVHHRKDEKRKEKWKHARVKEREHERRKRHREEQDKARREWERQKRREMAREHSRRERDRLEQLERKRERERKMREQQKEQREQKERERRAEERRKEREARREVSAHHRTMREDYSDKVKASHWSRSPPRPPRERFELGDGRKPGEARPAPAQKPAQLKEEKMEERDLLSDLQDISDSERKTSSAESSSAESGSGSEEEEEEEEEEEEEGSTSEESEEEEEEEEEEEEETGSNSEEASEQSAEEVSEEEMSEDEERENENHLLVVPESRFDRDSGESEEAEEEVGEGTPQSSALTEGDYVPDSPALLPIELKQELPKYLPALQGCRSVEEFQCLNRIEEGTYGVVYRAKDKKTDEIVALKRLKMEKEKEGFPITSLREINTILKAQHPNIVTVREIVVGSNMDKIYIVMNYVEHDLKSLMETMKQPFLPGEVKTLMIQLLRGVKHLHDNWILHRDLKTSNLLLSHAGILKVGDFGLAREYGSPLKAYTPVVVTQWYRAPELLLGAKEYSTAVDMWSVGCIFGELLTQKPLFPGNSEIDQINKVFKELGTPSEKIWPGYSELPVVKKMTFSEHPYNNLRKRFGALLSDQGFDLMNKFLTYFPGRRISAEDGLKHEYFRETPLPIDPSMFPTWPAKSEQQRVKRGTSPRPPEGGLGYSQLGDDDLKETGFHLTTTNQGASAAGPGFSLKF

[6] = biological target: kinases (KINOMEscan panel) (Homo sapiens, UniProt Q9BUB5); conditions: NEW KINOMEscan
[7] = biological target: kinases (KINOMEscan panel) (Homo sapiens, UniProt P00533, L861Q); conditions: kinase EGFR(L861Q); NEW KINOMEscan
[8] = biological target: kinases (KINOMEscan panel) (Homo sapiens, UniProt P35916); conditions: FLT4; NEW KINOMEscan
[9] = biological target: kinases (KINOMEscan panel) (Homo sapiens, UniProt Q00537); conditions: kinase CDK17; NEW KINOMEscan
[10] = biological target: kinases (KINOMEscan panel) (Homo sapiens, UniProt Q2M2I8); conditions: AAK1; NEW KINOMEscan
[11] = biological target: kinases (KINOMEscan panel) (Homo sapiens, UniProt P49761); conditions: CLK3; NEW KINOMEscan
kinases (KINOMEscan panel) (Homo sapiens, UniProt P49761), sequence (P49761 whole entry): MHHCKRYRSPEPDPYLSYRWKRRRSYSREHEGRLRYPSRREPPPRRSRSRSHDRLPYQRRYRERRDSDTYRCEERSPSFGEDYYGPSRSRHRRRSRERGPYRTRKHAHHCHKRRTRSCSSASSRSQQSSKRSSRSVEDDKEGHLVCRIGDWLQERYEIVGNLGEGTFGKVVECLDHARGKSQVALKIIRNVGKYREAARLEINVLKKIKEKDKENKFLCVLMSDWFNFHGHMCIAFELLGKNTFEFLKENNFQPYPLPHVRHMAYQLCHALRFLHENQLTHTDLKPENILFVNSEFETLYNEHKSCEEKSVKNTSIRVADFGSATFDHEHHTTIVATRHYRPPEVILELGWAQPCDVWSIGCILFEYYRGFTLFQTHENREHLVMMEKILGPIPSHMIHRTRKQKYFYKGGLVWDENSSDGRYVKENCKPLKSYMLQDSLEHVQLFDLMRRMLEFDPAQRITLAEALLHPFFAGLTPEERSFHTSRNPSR

kinases (KINOMEscan panel) (Homo sapiens, UniProt P35916), sequence (P35916 25-1363): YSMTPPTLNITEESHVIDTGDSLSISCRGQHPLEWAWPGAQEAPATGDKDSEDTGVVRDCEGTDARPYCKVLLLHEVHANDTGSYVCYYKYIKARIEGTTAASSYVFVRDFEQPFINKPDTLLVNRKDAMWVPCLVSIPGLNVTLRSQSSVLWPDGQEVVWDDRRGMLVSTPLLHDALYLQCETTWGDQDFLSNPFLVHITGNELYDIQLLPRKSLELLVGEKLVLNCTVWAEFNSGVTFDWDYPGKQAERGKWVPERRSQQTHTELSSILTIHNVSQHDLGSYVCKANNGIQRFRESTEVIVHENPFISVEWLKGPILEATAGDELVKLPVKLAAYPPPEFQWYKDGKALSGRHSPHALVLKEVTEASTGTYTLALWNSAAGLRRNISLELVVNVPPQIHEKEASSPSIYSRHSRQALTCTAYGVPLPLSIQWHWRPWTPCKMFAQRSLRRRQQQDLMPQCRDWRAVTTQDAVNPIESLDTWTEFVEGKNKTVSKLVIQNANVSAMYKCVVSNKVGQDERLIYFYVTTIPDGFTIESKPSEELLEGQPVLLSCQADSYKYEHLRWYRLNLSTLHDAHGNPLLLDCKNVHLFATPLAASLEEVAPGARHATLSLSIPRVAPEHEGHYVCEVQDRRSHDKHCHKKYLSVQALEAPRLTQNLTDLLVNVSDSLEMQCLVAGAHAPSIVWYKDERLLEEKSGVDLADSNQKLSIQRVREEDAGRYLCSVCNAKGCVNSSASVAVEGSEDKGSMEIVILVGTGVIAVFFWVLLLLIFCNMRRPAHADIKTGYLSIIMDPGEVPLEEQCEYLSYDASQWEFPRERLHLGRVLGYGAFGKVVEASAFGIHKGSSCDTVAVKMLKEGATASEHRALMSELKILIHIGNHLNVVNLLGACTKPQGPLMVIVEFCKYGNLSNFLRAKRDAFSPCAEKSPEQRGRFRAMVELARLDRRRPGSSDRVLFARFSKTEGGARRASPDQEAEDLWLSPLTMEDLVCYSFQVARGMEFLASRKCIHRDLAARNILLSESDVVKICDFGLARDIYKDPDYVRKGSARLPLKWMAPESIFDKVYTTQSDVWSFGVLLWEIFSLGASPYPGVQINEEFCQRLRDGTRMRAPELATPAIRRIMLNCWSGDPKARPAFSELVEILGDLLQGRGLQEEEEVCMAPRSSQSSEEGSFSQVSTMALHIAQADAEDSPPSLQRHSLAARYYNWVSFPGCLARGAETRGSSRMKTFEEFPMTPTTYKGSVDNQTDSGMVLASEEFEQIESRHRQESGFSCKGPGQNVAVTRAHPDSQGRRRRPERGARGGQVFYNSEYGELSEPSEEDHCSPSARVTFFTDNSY
kinases (KINOMEscan panel) (Homo sapiens, UniProt Q2M2I8), sequence (Q2M2I8 whole entry): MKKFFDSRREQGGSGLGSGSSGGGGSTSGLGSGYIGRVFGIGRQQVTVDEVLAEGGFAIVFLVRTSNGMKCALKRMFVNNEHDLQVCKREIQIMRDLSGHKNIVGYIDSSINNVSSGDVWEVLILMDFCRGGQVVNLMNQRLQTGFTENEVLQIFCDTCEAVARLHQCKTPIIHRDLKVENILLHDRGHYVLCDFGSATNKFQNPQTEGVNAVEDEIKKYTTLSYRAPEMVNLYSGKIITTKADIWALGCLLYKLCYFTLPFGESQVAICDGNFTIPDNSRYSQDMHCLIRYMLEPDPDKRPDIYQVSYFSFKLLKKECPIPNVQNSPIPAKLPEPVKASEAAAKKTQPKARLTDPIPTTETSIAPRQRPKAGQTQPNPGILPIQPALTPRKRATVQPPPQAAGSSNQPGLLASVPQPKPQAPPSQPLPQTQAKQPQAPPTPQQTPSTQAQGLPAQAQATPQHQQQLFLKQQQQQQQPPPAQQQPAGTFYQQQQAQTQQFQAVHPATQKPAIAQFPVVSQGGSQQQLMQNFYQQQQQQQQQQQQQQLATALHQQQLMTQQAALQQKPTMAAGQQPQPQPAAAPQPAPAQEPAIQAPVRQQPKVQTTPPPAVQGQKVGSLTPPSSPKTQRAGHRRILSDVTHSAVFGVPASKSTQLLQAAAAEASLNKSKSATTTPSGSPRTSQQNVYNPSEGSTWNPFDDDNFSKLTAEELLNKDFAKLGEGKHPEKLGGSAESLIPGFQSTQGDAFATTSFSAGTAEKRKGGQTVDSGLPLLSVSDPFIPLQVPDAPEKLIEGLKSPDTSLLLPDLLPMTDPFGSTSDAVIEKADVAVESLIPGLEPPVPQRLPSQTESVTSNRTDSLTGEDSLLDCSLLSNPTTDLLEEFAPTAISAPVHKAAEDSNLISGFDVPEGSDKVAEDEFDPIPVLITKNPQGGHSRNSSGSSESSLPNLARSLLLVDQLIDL
kinases (KINOMEscan panel) (Homo sapiens, UniProt P00533, L861Q), sequence (P00533 25-1210 L861Q): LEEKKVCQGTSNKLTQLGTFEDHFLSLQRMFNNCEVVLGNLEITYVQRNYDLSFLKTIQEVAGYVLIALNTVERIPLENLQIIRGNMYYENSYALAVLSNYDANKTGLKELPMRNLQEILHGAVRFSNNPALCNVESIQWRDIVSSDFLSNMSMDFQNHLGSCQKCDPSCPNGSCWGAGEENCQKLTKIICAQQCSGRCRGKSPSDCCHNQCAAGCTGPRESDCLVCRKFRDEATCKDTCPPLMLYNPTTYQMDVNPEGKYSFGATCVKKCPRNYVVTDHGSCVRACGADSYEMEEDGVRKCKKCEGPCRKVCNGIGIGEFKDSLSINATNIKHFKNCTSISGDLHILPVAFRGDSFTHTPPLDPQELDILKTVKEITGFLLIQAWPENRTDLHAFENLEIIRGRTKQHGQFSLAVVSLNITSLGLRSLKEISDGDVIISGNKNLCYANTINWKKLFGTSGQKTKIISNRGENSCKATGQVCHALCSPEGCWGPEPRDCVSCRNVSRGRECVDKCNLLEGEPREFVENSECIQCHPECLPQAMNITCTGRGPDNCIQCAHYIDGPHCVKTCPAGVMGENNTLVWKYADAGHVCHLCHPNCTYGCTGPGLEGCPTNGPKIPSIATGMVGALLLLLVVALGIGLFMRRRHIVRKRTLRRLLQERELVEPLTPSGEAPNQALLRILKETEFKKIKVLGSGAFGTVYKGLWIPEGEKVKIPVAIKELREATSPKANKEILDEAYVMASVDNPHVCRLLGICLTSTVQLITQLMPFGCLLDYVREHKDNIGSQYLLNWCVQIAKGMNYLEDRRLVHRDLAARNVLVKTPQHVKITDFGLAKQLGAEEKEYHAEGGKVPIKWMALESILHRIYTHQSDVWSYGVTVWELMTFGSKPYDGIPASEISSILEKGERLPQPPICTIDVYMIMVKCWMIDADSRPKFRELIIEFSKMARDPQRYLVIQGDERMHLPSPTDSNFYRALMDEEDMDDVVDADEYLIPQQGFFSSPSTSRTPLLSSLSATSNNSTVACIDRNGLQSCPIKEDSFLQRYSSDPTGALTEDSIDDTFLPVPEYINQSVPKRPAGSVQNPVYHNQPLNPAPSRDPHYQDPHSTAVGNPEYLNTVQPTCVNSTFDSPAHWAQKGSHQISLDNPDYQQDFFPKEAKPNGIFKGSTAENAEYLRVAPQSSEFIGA
kinases (KINOMEscan panel) (Homo sapiens, UniProt Q15759), sequence (Q15759 whole entry): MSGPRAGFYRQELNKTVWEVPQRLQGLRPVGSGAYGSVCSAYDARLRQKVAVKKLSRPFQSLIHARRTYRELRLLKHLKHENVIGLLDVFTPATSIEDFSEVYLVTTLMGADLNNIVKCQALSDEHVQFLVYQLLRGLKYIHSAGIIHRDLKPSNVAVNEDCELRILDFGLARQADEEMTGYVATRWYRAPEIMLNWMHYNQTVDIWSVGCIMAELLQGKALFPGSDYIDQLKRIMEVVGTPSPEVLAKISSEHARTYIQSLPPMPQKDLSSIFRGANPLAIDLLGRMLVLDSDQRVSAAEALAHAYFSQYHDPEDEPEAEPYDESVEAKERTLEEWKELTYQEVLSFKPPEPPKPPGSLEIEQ
kinases (KINOMEscan panel) (Homo sapiens, UniProt Q9BUB5), sequence (Q9BUB5 whole entry): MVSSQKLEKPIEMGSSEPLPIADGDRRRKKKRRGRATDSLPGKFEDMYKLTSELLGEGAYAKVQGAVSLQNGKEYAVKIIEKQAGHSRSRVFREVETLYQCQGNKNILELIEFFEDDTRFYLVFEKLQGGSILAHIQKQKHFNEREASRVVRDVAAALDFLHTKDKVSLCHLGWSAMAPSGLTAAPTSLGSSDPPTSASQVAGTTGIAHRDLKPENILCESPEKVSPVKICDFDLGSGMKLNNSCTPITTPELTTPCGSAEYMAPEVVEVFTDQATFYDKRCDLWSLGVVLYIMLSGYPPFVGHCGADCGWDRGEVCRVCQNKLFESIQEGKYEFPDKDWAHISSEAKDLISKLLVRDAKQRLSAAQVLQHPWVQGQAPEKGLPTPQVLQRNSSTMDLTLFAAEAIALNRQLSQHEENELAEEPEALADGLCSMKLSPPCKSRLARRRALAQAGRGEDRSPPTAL

Row | Compound | KINOMEscan RIPK1 [1] | KINOMEscan MAP4K4 [2] | KINOMEscan MAPK11/p38-beta [3] | KINOMEscan TBK1 [4] | KINOMEscan CDK11A [5] | KINOMEscan MKNK1 [6] | KINOMEscan EGFR(L861Q) [7] | KINOMEscan FLT4 [8] | KINOMEscan CDK17 [9] | KINOMEscan AAK1 [10] | KINOMEscan CLK3 [11]
1 | Cc1cccc(-c2nc(Nc3ccc4nn(C)cc4c3)c3ccccc3n2)n1 [NK167] | 2 | 1 | 12 | 44 | 24 | 0 | 0 | 0 | 1 | 1 | 6
2 | Cc1cccc(-c2nc(N(C)c3ccc4ncsc4c3)c3ccccc3n2)n1 [NK-161] | 0 | 0 | 1 | 25 | 25 | 7 | 0 | 1 | 0 | 5 | 4
